{"source": "paper PMC5218480", "about": "(PLoS ONE, 2017)", "tested_on": "MV-4-11 cells", "test": "Gene expression microarray analysis (Affymetrix PrimeView) and GSEA", "assay_type": "cell-based, human", "parameters": "RFU PODN (11730768_x_at) / Fold change /veh PODN (11730768_x_at) / RFU LINC00158 (11744669_a_at) / Fold change /veh LINC00158 (11744669_a_at) / RFU DUSP10 (11751237_a_at) / Fold change /veh DUSP10 (11751237_a_at) / RFU ID3 (11757404_x_at) / Fold change /veh ID3 (11757404_x_at) / RFU PLEKHG5 (11737974_s_at) / Fold change /veh PLEKHG5 (11737974_s_at) / RFU LRRC4B (11730491_at) / Fold change /veh LRRC4B (11730491_at) / RFU GIMAP4 (11747438_a_at) / Fold change /veh GIMAP4 (11747438_a_at) / RFU KRT8 (11758183_x_at) / Fold change /veh KRT8 (11758183_x_at) / RFU CNN1 (11734310_a_at) / Fold change /veh CNN1 (11734310_a_at) / RFU VPS37D (11726825_at) / Fold change /veh VPS37D (11726825_at) / RFU C10orf10 (11716522_x_at) / Fold change /veh C10orf10 (11716522_x_at) / RFU KIR2DL2 /// KIR2DL4 /// KIR2DL5A /// KIR2DL5B /// KIR2DS1 /// KIR2DS2 /// KIR2DS3 /// KIR2DS4 /// KIR3DL3 /// KIR3DL3 /// KIR3DS1 (11738374_at) / Fold change /veh KIR2DL2 /// KIR2DL4 /// KIR2DL5A /// KIR2DL5B /// KIR2DS1 /// KIR2DS2 /// KIR2DS3 /// KIR2DS4 /// KIR3DL3 /// KIR3DL3 /// KIR3DS1 (11738374_at) / RFU C1QL1 (11718748_at) / Fold change /veh C1QL1 (11718748_at) / RFU TMPRSS4 (11747572_a_at) / Fold change /veh TMPRSS4 (11747572_a_at) / RFU HAMP (11756126_x_at) / Fold change /veh HAMP (11756126_x_at) / RFU RNFT2 (11725882_a_at) / Fold change /veh RNFT2 (11725882_a_at) / RFU NR4A2 (11747474_a_at) / Fold change /veh NR4A2 (11747474_a_at) / RFU ABCC12 (11746883_a_at) / Fold change /veh ABCC12 (11746883_a_at) / RFU TMEM136 (11760407_x_at) / Fold change /veh TMEM136 (11760407_x_at) / RFU CLDN22 /// WWC2 (11732394_at) / Fold change /veh CLDN22 /// WWC2 (11732394_at) / RFU HLA-DPB1 (11760878_x_at) / Fold change /veh HLA-DPB1 (11760878_x_at) / RFU SPINT1 (11716480_a_at) / Fold change /veh SPINT1 (11716480_a_at) / RFU GAP43 (11754022_s_at) / Fold change /veh GAP43 (11754022_s_at) / RFU A4GNT (11735810_at) / Fold change /veh A4GNT (11735810_at) / RFU PRB3 (11715151_x_at) / Fold change /veh PRB3 (11715151_x_at) / RFU TUBB4B (11761932_at) / Fold change /veh TUBB4B (11761932_at) / RFU CAPN14 (11732068_a_at) / Fold change /veh CAPN14 (11732068_a_at) / RFU TMCC2 (11721928_a_at) / Fold change /veh TMCC2 (11721928_a_at) / RFU IRGQ (11745062_a_at) / Fold change /veh IRGQ (11745062_a_at) / RFU FAM174B (11720279_a_at) / Fold change /veh FAM174B (11720279_a_at) / RFU TMPRSS4 (11748680_a_at) / Fold change /veh TMPRSS4 (11748680_a_at) / RFU FAM212B (11763350_a_at) / Fold change /veh FAM212B (11763350_a_at) / RFU PLEKHG5 (11743358_a_at) / Fold change /veh PLEKHG5 (11743358_a_at) / RFU ZSCAN30 (11745921_a_at) / Fold change /veh ZSCAN30 (11745921_a_at) / RFU CMKLR1 (11741424_a_at) / Fold change /veh CMKLR1 (11741424_a_at) / RFU LOC101060620 /// MAPK8IP1 (11723275_at) / Fold change /veh LOC101060620 /// MAPK8IP1 (11723275_at) / RFU SPTSSB (11747773_x_at) / Fold change /veh SPTSSB (11747773_x_at) / RFU PRSS12 (11739890_at) / Fold change /veh PRSS12 (11739890_at) / RFU BIN1 (11741810_x_at) / Fold change /veh BIN1 (11741810_x_at) / RFU WNT11 (11732464_a_at) / Fold change /veh WNT11 (11732464_a_at) / RFU C10orf10 (11716521_a_at) / Fold change /veh C10orf10 (11716521_a_at) / RFU C5orf56 (11738089_at) / Fold change /veh C5orf56 (11738089_at) / RFU CYB561 (11721691_x_at) / Fold change /veh CYB561 (11721691_x_at) / RFU ANKRD19P (11752326_a_at) / Fold change /veh ANKRD19P (11752326_a_at) / RFU OR2T12 /// OR2T33 /// OR2T8 (11738714_s_at) / Fold change /veh OR2T12 /// OR2T33 /// OR2T8 (11738714_s_at) / RFU VCAN (11748164_a_at) / Fold change /veh VCAN (11748164_a_at) / RFU JSRP1 (11732532_at) / Fold change /veh JSRP1 (11732532_at) / RFU KRTAP10-11 (11738290_x_at) / Fold change /veh KRTAP10-11 (11738290_x_at) / RFU MYO3A (11730013_a_at) / Fold change /veh MYO3A (11730013_a_at) / RFU EBF3 (11725865_a_at) / Fold change /veh EBF3 (11725865_a_at) / RFU CAMK2N1 (11719241_x_at) / Fold change /veh CAMK2N1 (11719241_x_at) / RFU C5orf56 (11738088_a_at) / Fold change /veh C5orf56 (11738088_a_at) / RFU OLFML3 (11715873_a_at) / Fold change /veh OLFML3 (11715873_a_at) / RFU LOC100653217 /// NTM (11731650_a_at) / Fold change /veh LOC100653217 /// NTM (11731650_a_at) / RFU MAPK11 (11762145_a_at) / Fold change /veh MAPK11 (11762145_a_at) / RFU FIZ1 (11724087_x_at) / Fold change /veh FIZ1 (11724087_x_at) / RFU OASL (11726364_x_at) / Fold change /veh OASL (11726364_x_at) / RFU SOX15 (11748057_x_at) / Fold change /veh SOX15 (11748057_x_at) / RFU CD79A (11719716_a_at) / Fold change /veh CD79A (11719716_a_at) / RFU HIST1H1D (11736915_at) / Fold change /veh HIST1H1D (11736915_at) / RFU CASKIN2 (11723855_a_at) / Fold change /veh CASKIN2 (11723855_a_at) / RFU LOC730098 (11760151_x_at) / Fold change /veh LOC730098 (11760151_x_at) / RFU OR4N2 (11742367_at) / Fold change /veh OR4N2 (11742367_at) / RFU PRRT2 (11749266_a_at) / Fold change /veh PRRT2 (11749266_a_at) / RFU SNX32 (11753110_a_at) / Fold change /veh SNX32 (11753110_a_at) / RFU CDHR5 (11726645_a_at) / Fold change /veh CDHR5 (11726645_a_at) / RFU RCAN1 (11760418_a_at) / Fold change /veh RCAN1 (11760418_a_at) / RFU FAM167A (11723789_a_at) / Fold change /veh FAM167A (11723789_a_at) / RFU FAM26E (11764081_at) / Fold change /veh FAM26E (11764081_at) / RFU ISYNA1 (11749810_s_at) / Fold change /veh ISYNA1 (11749810_s_at) / RFU ACY1 (11761880_at) / Fold change /veh ACY1 (11761880_at) / RFU 11764098_at / Fold change /veh 11764098_at / RFU SAMD14 (11745864_x_at) / Fold change /veh SAMD14 (11745864_x_at) / RFU NPB (11741838_a_at) / Fold change /veh NPB (11741838_a_at) / RFU TMPRSS6 (11731388_a_at) / Fold change /veh TMPRSS6 (11731388_a_at) / RFU KRTAP10-2 (11738614_at) / Fold change /veh KRTAP10-2 (11738614_at) / RFU ARHGAP8 /// PRR5-ARHGAP8 (11727945_x_at) / Fold change /veh ARHGAP8 /// PRR5-ARHGAP8 (11727945_x_at) / RFU KRTAP5-7 /// NADSYN1 (11734609_at) / Fold change /veh KRTAP5-7 /// NADSYN1 (11734609_at) / RFU RASL12 (11751679_a_at) / Fold change /veh RASL12 (11751679_a_at) / RFU CDKN2B (11736163_a_at) / Fold change /veh CDKN2B (11736163_a_at) / RFU PRF1 (11729649_at) / Fold change /veh PRF1 (11729649_at) / RFU, ZNF638 /// ZNF638-IT1 / Fold change vs veh, ZNF638 /// ZNF638-IT1 / RFU, PANK3 / Fold change vs veh, PANK3 / RFU, SH3YL1 / Fold change vs veh, SH3YL1 / RFU, ZEB2 / Fold change vs veh, ZEB2 / RFU, NRIP1 / Fold change vs veh, NRIP1 / RFU, PTTG1IP / Fold change vs veh, PTTG1IP / RFU, CAPN2 / Fold change vs veh, CAPN2 / RFU, MED14 / Fold change vs veh, MED14 / RFU, SNORA58 / Fold change vs veh, SNORA58 / RFU, C1orf63 / Fold change vs veh, C1orf63 / RFU, LRRFIP1 / Fold change vs veh, LRRFIP1 / RFU, NDUFAF7 / Fold change vs veh, NDUFAF7 / RFU, SLC12A2 / Fold change vs veh, SLC12A2 / RFU, IBTK / Fold change vs veh, IBTK / RFU, ESF1 / Fold change vs veh, ESF1 / Fold change vs veh, TMEM50B / RFU, TAOK1 / Fold change vs veh, TAOK1 / RFU, ACBD3 / Fold change vs veh, ACBD3 / RFU, TMA16 / Fold change vs veh, TMA16 / RFU, RWDD3 / Fold change vs veh, RWDD3 / RFU, BCAT1 / Fold change vs veh, BCAT1 / RFU, EDEM3 / Fold change vs veh, EDEM3 / RFU, TMEM33 / Fold change vs veh, TMEM33 / RFU, WDR75 / Fold change vs veh, WDR75 / RFU, AHCTF1 / Fold change vs veh, AHCTF1 / RFU, TFRC / Fold change vs veh, TFRC / RFU, ZDHHC17 / Fold change vs veh, ZDHHC17 / RFU, NOM1 / Fold change vs veh, NOM1 / RFU, ARL8B / Fold change vs veh, ARL8B / RFU, ZBTB11 / Fold change vs veh, ZBTB11 / RFU, TAMM41 / Fold change vs veh, TAMM41 / RFU, KIAA1704 /// LOC100996395 / Fold change vs veh, KIAA1704 /// LOC100996395 / RFU, ING1 / Fold change vs veh, ING1 / RFU, TRMT61B / Fold change vs veh, TRMT61B / RFU, FUBP3 / Fold change vs veh, FUBP3 / RFU, TP53 / Fold change vs veh, TP53 / RFU, TNKS2 / Fold change vs veh, TNKS2 / RFU, ZFP14 / Fold change vs veh, ZFP14 / RFU, ACTR2 / Fold change vs veh, ACTR2 / RFU, PPP3R1 / Fold change vs veh, PPP3R1 / RFU, PIK3R1 / Fold change vs veh, PIK3R1 / RFU, HNRNPA1 / Fold change vs veh, HNRNPA1 / RFU, RNF170 / Fold change vs veh, RNF170 / RFU, ZNF28 / Fold change vs veh, ZNF28 / RFU, RNGTT / Fold change vs veh, RNGTT / RFU, OGT / Fold change vs veh, OGT / RFU, BRD1 / Fold change vs veh, BRD1 / RFU, MARS / Fold change vs veh, MARS / RFU, ZNF655 / Fold change vs veh, ZNF655 / RFU, FAHD1 / Fold change vs veh, FAHD1 / RFU, BDP1 / Fold change vs veh, BDP1 / RFU, LRRCC1 / Fold change vs veh, LRRCC1 / RFU, ARID1A / Fold change vs veh, ARID1A / RFU, ZNF146 / Fold change vs veh, ZNF146 / RFU, ZNF330 / Fold change vs veh, ZNF330 / RFU, GPN3 / Fold change vs veh, GPN3 / RFU, C9orf123 / Fold change vs veh, C9orf123 / RFU, N4BP2L2 / Fold change vs veh, N4BP2L2 / RFU, ARFIP1 / Fold change vs veh, ARFIP1 / RFU, FAM179B / Fold change vs veh, FAM179B / RFU, BCL10 / Fold change vs veh, BCL10 / RFU, UHRF1BP1L / Fold change vs veh, UHRF1BP1L / RFU, BET1 / Fold change vs veh, BET1 / RFU, CNOT2 / Fold change vs veh, CNOT2 / RFU, ZNF268 / Fold change vs veh, ZNF268 / Fold change vs veh, ZNF507 / RFU, DGCR2 / Fold change vs veh, DGCR2 / RFU, WDSUB1 / Fold change vs veh, WDSUB1 / Fold change vs veh, HSP90B1 /// MIR3652 / RFU, ADSS / Fold change vs veh, ADSS / RFU, GK / Fold change vs veh, GK / RFU, ZNF148 / Fold change vs veh, ZNF148 / RFU, TAF9 / Fold change vs veh, TAF9 / RFU, SLC1A5 / Fold change vs veh, SLC1A5 / RFU, SLMO2 / Fold change vs veh, SLMO2 / RFU, ABCC4 / Fold change vs veh, ABCC4 / RFU, LOC101060439 /// RAP1B / Fold change vs veh, LOC101060439 /// RAP1B / RFU, RFX7 / Fold change vs veh, RFX7 / RFU, GTPBP10 / Fold change vs veh, GTPBP10 / RFU, CNEP1R1 / Fold change vs veh, CNEP1R1 / RFU, BIVM-ERCC5 /// ERCC5 / Fold change vs veh, BIVM-ERCC5 /// ERCC5 / RFU, ILF3 / Fold change vs veh, ILF3 / RFU 11762660_at / Fold change /veh 11762660_at / RFU VCAN (11757783_s_at) / Fold change /veh VCAN (11757783_s_at) / RFU DDX43 (11728927_at) / Fold change /veh DDX43 (11728927_at) / RFU KRT8 (11758188_x_at) / Fold change /veh KRT8 (11758188_x_at) / RFU NKD1 (11759106_at) / Fold change /veh NKD1 (11759106_at) / RFU SRD5A1 (11742802_a_at) / Fold change /veh SRD5A1 (11742802_a_at) / RFU TPSAB1 /// TPSB2 (11721975_s_at) / Fold change /veh TPSAB1 /// TPSB2 (11721975_s_at) / RFU GSTM3 (11746129_a_at) / Fold change /veh GSTM3 (11746129_a_at) / RFU IL23R (11737362_x_at) / Fold change /veh IL23R (11737362_x_at) / RFU TMEM51 (11727254_a_at) / Fold change /veh TMEM51 (11727254_a_at) / RFU PIWIL2 (11732686_x_at) / Fold change /veh PIWIL2 (11732686_x_at) / RFU ORM1 (11744905_x_at) / Fold change /veh ORM1 (11744905_x_at) / RFU CCDC152 (11743942_at) / Fold change /veh CCDC152 (11743942_at) / RFU ECM1 (11717891_a_at) / Fold change /veh ECM1 (11717891_a_at) / RFU IL23R (11748794_a_at) / Fold change /veh IL23R (11748794_a_at) / RFU TNFAIP8L3 (11732012_x_at) / Fold change /veh TNFAIP8L3 (11732012_x_at) / RFU MBOAT4 (11741988_at) / Fold change /veh MBOAT4 (11741988_at) / RFU 11764193_at / Fold change /veh 11764193_at / RFU TMEM53 (11763286_at) / Fold change /veh TMEM53 (11763286_at) / RFU MAGEB2 (11727129_at) / Fold change /veh MAGEB2 (11727129_at) / RFU TMEM200A (11744735_a_at) / Fold change /veh TMEM200A (11744735_a_at) / RFU CCDC152 (11751479_a_at) / Fold change /veh CCDC152 (11751479_a_at) / RFU FAM211A (11726209_a_at) / Fold change /veh FAM211A (11726209_a_at) / RFU RGS16 (11746705_a_at) / Fold change /veh RGS16 (11746705_a_at) / RFU VCAN (11755009_s_at) / Fold change /veh VCAN (11755009_s_at) / RFU RHOB (11743442_s_at) / Fold change /veh RHOB (11743442_s_at) / RFU RGS16 (11720943_a_at) / Fold change /veh RGS16 (11720943_a_at) / RFU RGS16 (11720944_at) / Fold change /veh RGS16 (11720944_at) / RFU, VPS4B / Fold change vs veh, VPS4B / RFU, CREB1 / Fold change vs veh, CREB1 / RFU, DNAJC13 / Fold change vs veh, DNAJC13 / RFU, GNAQ / Fold change vs veh, GNAQ / RFU, CDK5R1 / Fold change vs veh, CDK5R1 / RFU, ZRANB3 / Fold change vs veh, ZRANB3 / RFU, CUL4A / Fold change vs veh, CUL4A / RFU, CCNY / Fold change vs veh, CCNY / RFU, UFL1 / Fold change vs veh, UFL1 / RFU, COG3 / Fold change vs veh, COG3 / RFU, DIAPH2 / Fold change vs veh, DIAPH2 / RFU, SKA2 / Fold change vs veh, SKA2 / RFU, AFF3 / Fold change vs veh, AFF3 / RFU, LMF1 / Fold change vs veh, LMF1 / RFU, IPO11 / Fold change vs veh, IPO11 / RFU, DFFB / Fold change vs veh, DFFB / RFU, FOXP1 / Fold change vs veh, FOXP1 / RFU, CARD8 / Fold change vs veh, CARD8 / RFU, STRN3 / Fold change vs veh, STRN3 / RFU, ADK / Fold change vs veh, ADK / RFU, RASSF2 / Fold change vs veh, RASSF2 / RFU, WIPF1 / Fold change vs veh, WIPF1 / RFU, LARP1B / Fold change vs veh, LARP1B / RFU, RASA1 / Fold change vs veh, RASA1 / RFU, RB1 / Fold change vs veh, RB1 / RFU, PPFIA1 / Fold change vs veh, PPFIA1 / RFU, MAT2A / Fold change vs veh, MAT2A / RFU, CCT5 / Fold change vs veh, CCT5 / RFU, WDR92 / Fold change vs veh, WDR92 / RFU, CUX1 / Fold change vs veh, CUX1 / RFU, TTC7A / Fold change vs veh, TTC7A / RFU, TMEM135 / Fold change vs veh, TMEM135 / RFU, DEPTOR / Fold change vs veh, DEPTOR / RFU, CPM / Fold change vs veh, CPM / RFU, DNAJB6 / Fold change vs veh, DNAJB6 / RFU, CACNA2D3 / Fold change vs veh, CACNA2D3 / RFU, DTX4 / Fold change vs veh, DTX4 / RFU, TFCP2 / Fold change vs veh, TFCP2 / RFU, GMCL1 /// GMCL1P1 / Fold change vs veh, GMCL1 /// GMCL1P1 / RFU, AEBP2 / Fold change vs veh, AEBP2 / RFU, SNHG1 /// SNORD22 /// SNORD25 /// SNORD26 /// SNORD27 /// SNORD28 /// SNORD29 /// SNORD31 / Fold change vs veh, SNHG1 /// SNORD22 /// SNORD25 /// SNORD26 /// SNORD27 /// SNORD28 /// SNORD29 /// SNORD31 / Fold change (Aza/veh), C12orf56 (ProbeSet 11735607_a_at) / Fold change (ACY-1035/veh), C12orf56 (ProbeSet 11735607_a_at) / Fold change (Aza/veh), FGFR1OP (ProbeSet 11751329_s_at) / Fold change (ACY-1035/veh), FGFR1OP (ProbeSet 11751329_s_at) / Fold change (Aza/veh), VPS36 (ProbeSet 11739960_a_at) / Fold change (ACY-1035/veh), VPS36 (ProbeSet 11739960_a_at) / RFU SYPL1 (11715823_x_at) / Fold change /veh SYPL1 (11715823_x_at) / RFU IGFBP7 (11715501_s_at) / Fold change /veh IGFBP7 (11715501_s_at) / RFU REEP3 (11722064_at) / Fold change /veh REEP3 (11722064_at) / RFU IGLL1 (11728026_x_at) / Fold change /veh IGLL1 (11728026_x_at): dose or concentration left out as unconfirmed", "conditions": "MV-4-11 cells, 48 hours"}
{"smiles": "Nc1ncn([C@@H]2O[C@H](CO)[C@@H](O)[C@H]2O)c(=O)n1", "note": "[azacitidine]", "values": [{"measurement": "Fold change /veh LOC101060620 /// MAPK8IP1 (11723275_at)", "result": 0.98}]}
